Target: T1, estrogen receptor (Homo sapiens, UniProt P03372)
T1 construct: since the MCF-7 cells express estrogen receptors; endogenous in cells; host or cells: MCF-7 human mammary carcinoma cells, infected with adenovirus 5-ERE-tk-luciferase (reporter only)
T1 sequence (P03372 1-595): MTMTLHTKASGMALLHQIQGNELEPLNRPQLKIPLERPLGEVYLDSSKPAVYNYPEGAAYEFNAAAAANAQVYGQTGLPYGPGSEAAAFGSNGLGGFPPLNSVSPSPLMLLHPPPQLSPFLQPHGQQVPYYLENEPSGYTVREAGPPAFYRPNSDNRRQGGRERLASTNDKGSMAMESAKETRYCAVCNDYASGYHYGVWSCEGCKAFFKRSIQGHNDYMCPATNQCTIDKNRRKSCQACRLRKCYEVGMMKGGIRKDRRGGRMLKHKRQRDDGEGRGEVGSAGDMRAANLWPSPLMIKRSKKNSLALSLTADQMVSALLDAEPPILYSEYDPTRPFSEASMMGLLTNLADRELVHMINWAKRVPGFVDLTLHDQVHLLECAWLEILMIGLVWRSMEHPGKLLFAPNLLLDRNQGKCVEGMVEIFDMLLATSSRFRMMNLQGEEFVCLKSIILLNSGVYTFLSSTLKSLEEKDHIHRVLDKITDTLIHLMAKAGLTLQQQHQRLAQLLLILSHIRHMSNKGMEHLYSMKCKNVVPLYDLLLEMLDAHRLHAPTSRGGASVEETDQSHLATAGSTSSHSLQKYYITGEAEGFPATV
Assay: Estrogen antagonist/agonist activity in MCF-7 cells infected with adenovirus 5-ERE-tk-luciferase (luciferase reporter)
Format: cell-based
Conditions: antagonist mode, co-dosed with 10 pM 17β-estradiol, 24 h treatment
Text: Estrogen antagonist activity was shown for representative compounds of this invention in a standard pharmacological test procedure using MCF-7 cells transfected with an estrogen receptor. When administered orally, the compounds of this invention act at least partially as prodrugs for the corresponding hydroxylated compounds disclosed in EP 802183. Accordingly, the compounds of this invention are tissue selective estrogens, meaning that in certain tissue containing estrogen receptors, the compounds will act as estrogen agonists, and in other tissue containing estrogen receptors, the compounds will act as antagonists. […] The cell lysates (20 uL) were transferred to a 96 well luminometer plate, and luciferase activity was measured in a MicroLumat LB 96 P luminometer (EG and G Bethold) using 100 uL/well of luciferase substrate (Promega Corporation). […] Following the injection of the substrate, luciferase activity was measured for 10 seconds after a 1 second delay. The data were transferred from the luminometer to a Macintosh personal computer and analyzed using the JMP software (SAS institute); this program subtracts the background reading from the luciferase measurement for each well and then determine the mean and standard deviation of each treatment. […]

Compound Cc1c(-c2ccc(O)cc2)n(Cc2ccc(OCCN3CCCCCC3)cc2)c2ccc(OC3OC(C(=O)O)C(O)C(O)C3O)cc12 (centres unmarked) [Compound 30, 1-[4-(2-Azepan-1-yl-ethoxy)-benzyl]-2-(4-hydroxy-phenyl)-3-methyl-1H-indol-5-ol 5-O-glucuronide] has an IC50 of 210 nM.
With Cc1c(-c2ccc(OC3OC(C(=O)O)C(O)C(O)C3O)cc2)n(Cc2ccc(OCCN3CCCCCC3)cc2)c2ccc(O)cc12 (centres unmarked) [Compound 38, 1-[4-(2-Azepan-1-yl-ethoxy)-benzyl]-2-(4-hydroxy-phenyl)-3-methyl-1H-indol-5-ol 4-O-glucuronide] the IC50 was 1100 nM.
